Laboratory results as given in patent US20240158404A1, “MODULATORS OF ALPHA-1 ANTITRYPSIN” (Vertex Pharmaceuticals Incorporated, priority 2022, published 2024).

Target: T1, AAT (Homo sapiens, UniProt P01009, E366K)
T1 construct: expressed in transfected cells; host or cells: NL20 human bronchial epithelial cells (NL20-SI cell line), with doxycycline added alongside the compounds
Experiment: Compound Quality score (potency in AAT functional assay multiplied by unbound clearance)
Conditions: compound potency (EC50) x unbound clearance; class symbols
Source text: As used herein, the term “Compound Quality” refers to the potency of a compound multiplied (x) by the compound's unbound clearance as measured using the assays described in Example 6.
The terms “unbound clearance” refer to unbound intrinsic clearance (unbound CLint) in hepatocytes—the intrinsic clearance a drug would have in the absence of protein binding. Unbound CLint=CLint,hep/fu,hep, where CLint,hep is intrinsic clearance in hepatocytes and fu,hep is unbound fraction in hepatocytes.
A key consideration for the selection of compounds suitable for clinical development is the projection of human dose as described in Equations 1-3. Two key parameters that comprise the dose equation are the unbound clearance of a compound and the plasma efficacious exposure (also referred to herein as compound potency). Together these parameters are known to one skilled in the art as a measurement of Compound Quality and suitability for advancement into clinical development. Thus, when evaluating AAT modulator compounds, one needs to consider both the potency and unbound clearance parameters (i.e., Compound Quality). The relationship between these two parameters can be challenging to predict.
The values provided in the table below are calculated by multiplying the EC50 of each of the compounds by the result from the clearance assay procedures described in Section C above and rounded to two significant figures. In the table below, the following meanings apply for Compound Quality (i.e., compound potency x unbound clearance) values: “++++” means ≤0.2; “+++” means >0.20 and ≤0.30; “++” means >0.30 and ≤0.40; “+” means >0.40 and ≤0.50.

T1 sequence (P01009 25-418 E366K): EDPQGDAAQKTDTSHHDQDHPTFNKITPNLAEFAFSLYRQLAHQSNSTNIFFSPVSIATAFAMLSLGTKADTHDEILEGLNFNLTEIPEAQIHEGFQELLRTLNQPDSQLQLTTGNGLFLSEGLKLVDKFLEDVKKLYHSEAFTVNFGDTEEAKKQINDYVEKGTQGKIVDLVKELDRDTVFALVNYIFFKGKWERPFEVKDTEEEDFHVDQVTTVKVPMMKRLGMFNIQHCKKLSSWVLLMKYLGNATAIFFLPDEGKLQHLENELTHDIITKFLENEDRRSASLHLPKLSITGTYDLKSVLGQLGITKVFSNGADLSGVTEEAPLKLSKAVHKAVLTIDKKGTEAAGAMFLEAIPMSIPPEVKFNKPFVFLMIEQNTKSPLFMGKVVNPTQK

Row | Compound Quality | Structure (SMILES)
1 | ++ (“++” means >0.30 and ≤0.40) | CC[C@](O)(COC)c1c(-c2ccc(C(=O)O)cc2)c2c(F)c3[nH]ncc3cc2n1-c1ccc(F)c(F)c1 [Compound 6]
2 | +++ (“+++” means >0.20 and ≤0.30) | CC[C@](O)(COC)c1c(-c2ccc(C(=O)O)cc2)c2c(F)c3[nH]ncc3cc2n1-c1ccc(F)c(C)c1 [Compound 7]
3 | + (“+” means >0.40 and ≤0.50) | CC[C@](O)(COC)c1c(-c2ccc(C(=O)O)cc2)c2c(F)c3[nH]ncc3cc2n1-c1ccc(F)c(OC)c1 [Compound 8]
4 | +++ (“+++” means >0.20 and ≤0.30) | CCOCC(O)(CC)c1c(-c2ccc(C(=O)O)cc2)c2c(F)c3[nH]ncc3cc2n1-c1ccc(F)c(OC)c1 (stereo not drawn) [Compound 9]
5 | ++ (“++” means >0.30 and ≤0.40) | [2H]C([2H])([2H])Oc1cc(-n2c([C@@](O)(CC)COC)c(-c3ccc(C(=O)O)cc3)c3c(F)c4[nH]ncc4cc32)ccc1F [Compound 10]
6 | +++ (“+++” means >0.20 and ≤0.30) | CCOCC(O)(CC)c1c(-c2ccc(C(=O)O)cc2)c2c(F)c3[nH]ncc3cc2n1-c1ccc(F)c(F)c1 (stereo not drawn) [Compound 11]
7 | +++ (“+++” means >0.20 and ≤0.30) | [2H]C([2H])([2H])C([2H])([2H])C(O)(COC)c1c(-c2ccc(C(=O)O)cc2)c2c(F)c3[nH]ncc3cc2n1-c1ccc(F)c(Cl)c1 (stereo not drawn) [Compound 12]
8 | +++ (“+++” means >0.20 and ≤0.30) | CCC(O)(COC(C)C)c1c(-c2ccc(C(=O)O)cc2)c2c(F)c3[nH]ncc3cc2n1-c1ccc(F)c(OC)c1 (stereo not drawn) [Compound 13]
9 | ++ (“++” means >0.30 and ≤0.40) | CCOCC(O)(c1c(-c2ccc(C(=O)O)cc2)c2c(F)c3[nH]ncc3cc2n1-c1ccc(F)cc1)C1CC1 (stereo not drawn) [Compound 14]
10 | ++ (“++” means >0.30 and ≤0.40) | CC[C@@](O)(COC)c1c(-c2ccc(C(=O)O)cc2)c2c(F)c3[nH]ncc3cc2n1-c1cccc(F)c1 [Compound 15]
11 | ++ (“++” means >0.30 and ≤0.40) | CC[C@@](O)(COC)c1c(-c2ccc(C(=O)O)cc2)c2c(F)c3[nH]ncc3cc2n1-c1cc(F)c(F)c(OC)c1 [Compound 16]
12 | +++ (“+++” means >0.20 and ≤0.30) | CCC(O)(COC)c1c(-c2ccc(C(=O)O)c(C)c2)c2c(F)c3[nH]ncc3cc2n1-c1ccc(F)c(F)c1 (stereo not drawn) [Compound 17]
13 | +++ (“+++” means >0.20 and ≤0.30) | [2H]C([2H])([2H])C([2H])([2H])C(O)(COC)c1c(-c2ccc(C(=O)O)cc2)c2c(F)c3[nH]ncc3cc2n1-c1ccc(F)cc1 (stereo not drawn) [Compound 18]
14 | +++ (“+++” means >0.20 and ≤0.30) | [2H]C([2H])([2H])C([2H])([2H])C(O)(COC)c1c(-c2ccc(C(=O)O)cc2)c2c(F)c3[nH]ncc3cc2n1-c1ccc(F)c(C)c1 (stereo not drawn) [Compound 19]
15 | ++ (“++” means >0.30 and ≤0.40) | [2H]C([2H])([2H])C([2H])([2H])C(O)(COC)c1c(-c2ccc(C(=O)O)cc2)c2c(F)c3[nH]ncc3cc2n1-c1ccc(F)c(OC)c1 (stereo not drawn) [Compound 20]
16 | ++ (“++” means >0.30 and ≤0.40) | [2H]C([2H])([2H])C([2H])([2H])C(O)(COC)c1c(-c2ccc(C(=O)O)cc2)c2c(F)c3[nH]ncc3cc2n1-c1ccc(F)c(F)c1 (stereo not drawn) [Compound 21]
17 | ++++ (“++++” means ≤0.2) | [2H]C([2H])([2H])Oc1cc(-n2c(C3(O)CCCCC3OC)c(-c3ccc(C(=O)O)cc3)c3c(F)c4[nH]ncc4cc32)ccc1F (stereo not drawn) [Compound 22]
18 | +++ (“+++” means >0.20 and ≤0.30) | COC1CCCCC1(O)c1c(-c2ccc(C(=O)O)cc2)c2c(F)c3[nH]ncc3cc2n1-c1ccc(F)c(F)c1 (stereo not drawn) [Compound 23]
19 | +++ (“+++” means >0.20 and ≤0.30) | COc1cc(-n2c(C3(O)CCCCC3OC)c(-c3ccc(C(=O)O)cc3)c3c(F)c4[nH]ncc4cc32)ccc1F (stereo not drawn) [Compound 24]
20 | +++ (“+++” means >0.20 and ≤0.30) | COC1CCCCC1(O)c1c(-c2ccc(C(=O)O)cc2)c2c(F)c3[nH]ncc3cc2n1-c1cccc(F)c1 (stereo not drawn) [Compound 25]
21 | ++++ (“++++” means ≤0.2) | COC1CCCCC1(O)c1c(-c2ccc(C(=O)O)cc2)c2c(F)c3[nH]ncc3cc2n1-c1ccc(F)cc1 (stereo not drawn) [Compound 26]
22 | ++ (“++” means >0.30 and ≤0.40) | COC1CCCC1(O)c1c(-c2ccc(C(=O)O)cc2)c2c(F)c3[nH]ncc3cc2n1-c1ccc(F)cc1 (stereo not drawn) [Compound 27]
23 | +++ (“+++” means >0.20 and ≤0.30) | COC1CCCC1(O)c1c(-c2ccc(C(=O)O)cc2)c2c(F)c3[nH]ncc3cc2n1-c1ccc(F)c(F)c1 (stereo not drawn) [Compound 28]

Row | Compound Quality | Structure (SMILES)
24 | ++++ (“++++” means ≤0.2) | [2H]C1([2H])C([2H])([2H])C([2H])([2H])[C@](O)(c2c(-c3ccc(C(=O)O)cc3)c3c(F)c4[nH]ncc4cc3n2-c2ccc(F)cc2)[C@@]([2H])(OC)C1([2H])[2H] [Compound 29]
25 | ++++ (“++++” means ≤0.2) | [2H]C1([2H])C([2H])([2H])C([2H])([2H])[C@](O)(c2c(-c3ccc(C(=O)O)cc3)c3c(F)c4[nH]ncc4cc3n2-c2ccc(F)c(OC)c2)[C@@]([2H])(OC)C1([2H])[2H] [Compound 30]
26 | ++ (“++” means >0.30 and ≤0.40) | [2H]C([2H])([2H])Oc1cc(-n2c([C@@]3(O)C([2H])([2H])C([2H])([2H])C([2H])([2H])C([2H])([2H])[C@]3([2H])OC)c(-c3ccc(C(=O)O)cc3)c3c(F)c4[nH]ncc4cc32)ccc1F [Compound 31]
27 | +++ (“+++” means >0.20 and ≤0.30) | [2H]C([2H])([2H])Oc1cc(-n2c(C3(O)C([2H])([2H])C([2H])([2H])C([2H])([2H])C([2H])([2H])C3([2H])OC([2H])([2H])[2H])c(-c3ccc(C(=O)O)cc3)c3c(F)c4[nH]ncc4cc32)ccc1F (stereo not drawn) [Compound 32]
28 | +++ (“+++” means >0.20 and ≤0.30) | [2H]C([2H])([2H])OCC(O)(CC)c1c(-c2ccc(C(=O)O)cc2)c2c(F)c3[nH]ncc3cc2n1-c1ccc(F)c(F)c1 (stereo not drawn) [Compound 33]
29 | ++++ (“++++” means ≤0.2) | [2H]C([2H])([2H])C([2H])([2H])C(O)(COC)c1c(-c2ccc(C(=O)O)cc2)c2c(F)c3[nH]ncc3cc2n1-c1ccc(F)c(F)c1 (stereo not drawn) [Compound 34]
30 | ++++ (“++++” means ≤0.2) | CCC(O)(COC)c1c(-c2ccc(C(=O)O)c(C)c2)c2c(F)c3[nH]ncc3cc2n1-c1ccc(F)cc1 (stereo not drawn) [Compound 35]
31 | +++ (“+++” means >0.20 and ≤0.30) | CCC(O)(COC)c1c(-c2ccc(C(=O)O)c(C)c2)c2c(F)c3[nH]ncc3cc2n1-c1ccc(F)c(Cl)c1 (stereo not drawn) [Compound 36]
32 | +++ (“+++” means >0.20 and ≤0.30) | [2H]C([2H])([2H])C([2H])([2H])C(O)(COC)c1c(-c2ccc(C(=O)O)cc2)c2c(F)c3[nH]ncc3cc2n1-c1ccc(F)cc1 (stereo not drawn) [Compound 37]
33 | +++ (“+++” means >0.20 and ≤0.30) | [2H]C([2H])([2H])C([2H])([2H])C(O)(COC)c1c(-c2ccc(C(=O)O)cc2)c2c(F)c3[nH]ncc3cc2n1-c1ccc(F)c(C)c1 (stereo not drawn) [Compound 38]
34 | +++ (“+++” means >0.20 and ≤0.30) | CCC(O)(COC)c1c(-c2ccc(C(=O)O)c(C)c2)c2c(F)c3[nH]ncc3cc2n1-c1ccc(F)c(F)c1 (stereo not drawn) [Compound 39]
35 | +++ (“+++” means >0.20 and ≤0.30) | CCC(O)(COC)c1c(-c2ccc(C(=O)O)c(C)c2)c2c(F)c3[nH]ncc3cc2n1-c1ccc(F)c(OC)c1 (stereo not drawn) [Compound 40]
36 | + (“+” means >0.40 and ≤0.50) | CCC(O)(CCOC)c1c(-c2ccc(C(=O)O)cc2)c2c(F)c3[nH]ncc3cc2n1-c1ccc(F)cc1 (stereo not drawn) [Compound 41]
37 | ++ (“++” means >0.30 and ≤0.40) | CC[C@@](O)(COC)c1c(-c2ccc(C(=O)O)cc2)c2c(F)c3[nH]ncc3cc2n1-c1cc(C)c(F)c(F)c1 [Compound 42]
38 | + (“+” means >0.40 and ≤0.50) | COC1CCCC1(O)c1c(-c2ccc(C(=O)O)cc2)c2c(F)c3[nH]ncc3cc2n1-c1ccc(F)c(C)c1 (stereo not drawn) [Compound 43]
39 | + (“+” means >0.40 and ≤0.50) | CCC(O)(COC)c1c(-c2ccc(C(=O)O)c(C)c2)c2c(F)c3[nH]ncc3cc2n1-c1cccc(F)c1 (stereo not drawn) [Compound 44]
40 | +++ (“+++” means >0.20 and ≤0.30) | [2H]C([2H])([2H])OCC(O)(CC)c1c(-c2ccc(C(=O)O)cc2)c2c(F)c3[nH]ncc3cc2n1-c1ccc(F)c(OC([2H])([2H])[2H])c1 (stereo not drawn) [Compound 45]
41 | +++ (“+++” means >0.20 and ≤0.30) | [2H]C([2H])([2H])Oc1cc(-n2c(C(O)(COC)C([2H])([2H])C([2H])([2H])[2H])c(-c3ccc(C(=O)O)cc3)c3c(F)c4[nH]ncc4cc32)ccc1F (stereo not drawn) [Compound 46]
42 | +++ (“+++” means >0.20 and ≤0.30) | [2H]C([2H])([2H])C([2H])([2H])C(O)(COC)c1c(-c2ccc(C(=O)O)cc2)c2c(F)c3[nH]ncc3cc2n1-c1ccc(F)c(OC)c1 (stereo not drawn) [Compound 47]
43 | + (“+” means >0.40 and ≤0.50) | CCc1cc(-c2c(C(O)(CC)COC)n(-c3ccc(F)c(F)c3)c3cc4cn[nH]c4c(F)c23)ccc1C(=O)O (stereo not drawn) [Compound 48]
44 | ++ (“++” means >0.30 and ≤0.40) | CCc1cc(-c2c(C(O)(CC)COC)n(-c3ccc(F)c(OC)c3)c3cc4cn[nH]c4c(F)c23)ccc1C(=O)O (stereo not drawn) [Compound 49]
45 | ++ (“++” means >0.30 and ≤0.40) | [2H]C([2H])([2H])Oc1cc(-n2c(C(O)(CC)COC)c(-c3ccc(C(=O)O)c(C)c3)c3c(F)c4[nH]ncc4cc32)ccc1F (stereo not drawn) [Compound 50]
